From patent publication US20240391936A1, “TETRAHYDROTHIENO PYRIDINE DERIVATIVES AS DDRS INHIBITORS” (CHIESI FARMACEUTICI S.P.A., priority 2021, published 2024)

How the values were obtained:
[1] = target: T1, DDR1 (Homo sapiens, UniProt Q08345); experiment: DDR1 cell based assay (PathHunter U2OS DDR1 assay); set-up: host or cells: U2OS-DDR1 (PathHunter); settings: U2OS-DDR1 cells, bovine Type II Collagen 20 μg/ml
Summary of the method: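 U2OS-DDR1 PathHunter cells preincubated 30 min with compound, then stimulated overnight at 37 °C with 20 μg/ml bovine type II collagen. Luminescent complementation signal read after 1 h detection at room temperature; normalized to vehicle (0%) and collagen-only (100%) controls, IC50 from variable-slope sigmoidal fit.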

[2] = target: T1, DDR1; experiment: DDR1 binding assay (LanthaScreen Europium Kinase Binding assay); set-up: purchased Carna Biosciences; settings: binding assay, 5 nM DDR1, 20 nM Kinase Tracer 178; Ki from IC50 by Cheng-Prusoff; read-out: Ki DDR1
Summary of the method: (§1)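 Compounds incubated 1 h at room temperature with 5 nM kinase, Kinase Tracer 178 (20 nM for DDR1, 10 nM for DDR2) and 2 nM Eu-anti-GST antibody in pH 7.5 HEPES/MgCl2/EGTA/BRIJ35 buffer. TR-FRET 665/615 nm ratio read after 340 nm excitation; IC50 from 4-parameter fit, converted to Ki by Cheng-Prusoff.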

[3] = target: T2, DDR2 (Homo sapiens, UniProt Q16832); experiment: DDR2 binding assay (LanthaScreen Europium Kinase Binding assay); set-up: purchased Life Technologies; settings: binding assay, 5 nM DDR2, 10 nM Kinase Tracer 178; Ki from IC50 by Cheng-Prusoff; read-out: Ki DDR2
T2 sequence (Q16832 22-855): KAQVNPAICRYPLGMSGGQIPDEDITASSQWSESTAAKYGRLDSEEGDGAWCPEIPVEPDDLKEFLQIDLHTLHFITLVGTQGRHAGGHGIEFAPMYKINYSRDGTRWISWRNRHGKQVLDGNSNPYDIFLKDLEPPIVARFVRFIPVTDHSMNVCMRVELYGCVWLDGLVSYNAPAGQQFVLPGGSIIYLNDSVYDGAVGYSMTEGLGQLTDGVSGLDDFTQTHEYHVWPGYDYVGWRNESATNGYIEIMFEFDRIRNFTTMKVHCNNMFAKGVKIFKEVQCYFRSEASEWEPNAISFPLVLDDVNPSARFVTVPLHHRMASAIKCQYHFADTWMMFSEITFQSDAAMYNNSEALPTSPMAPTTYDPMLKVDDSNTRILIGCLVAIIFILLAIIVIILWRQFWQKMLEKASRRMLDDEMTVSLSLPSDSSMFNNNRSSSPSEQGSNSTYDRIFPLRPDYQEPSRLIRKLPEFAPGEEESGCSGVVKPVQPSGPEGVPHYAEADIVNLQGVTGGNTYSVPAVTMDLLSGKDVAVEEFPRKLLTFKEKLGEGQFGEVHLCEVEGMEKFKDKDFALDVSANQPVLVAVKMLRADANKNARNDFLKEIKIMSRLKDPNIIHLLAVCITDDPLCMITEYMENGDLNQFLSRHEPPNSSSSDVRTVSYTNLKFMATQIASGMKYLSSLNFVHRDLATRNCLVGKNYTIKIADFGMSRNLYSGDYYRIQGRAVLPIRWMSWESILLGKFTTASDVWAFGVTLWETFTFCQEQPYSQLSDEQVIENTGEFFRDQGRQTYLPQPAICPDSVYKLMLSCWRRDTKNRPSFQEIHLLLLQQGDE
Summary of the method: as §1

T1 sequence (Q08345 19-913): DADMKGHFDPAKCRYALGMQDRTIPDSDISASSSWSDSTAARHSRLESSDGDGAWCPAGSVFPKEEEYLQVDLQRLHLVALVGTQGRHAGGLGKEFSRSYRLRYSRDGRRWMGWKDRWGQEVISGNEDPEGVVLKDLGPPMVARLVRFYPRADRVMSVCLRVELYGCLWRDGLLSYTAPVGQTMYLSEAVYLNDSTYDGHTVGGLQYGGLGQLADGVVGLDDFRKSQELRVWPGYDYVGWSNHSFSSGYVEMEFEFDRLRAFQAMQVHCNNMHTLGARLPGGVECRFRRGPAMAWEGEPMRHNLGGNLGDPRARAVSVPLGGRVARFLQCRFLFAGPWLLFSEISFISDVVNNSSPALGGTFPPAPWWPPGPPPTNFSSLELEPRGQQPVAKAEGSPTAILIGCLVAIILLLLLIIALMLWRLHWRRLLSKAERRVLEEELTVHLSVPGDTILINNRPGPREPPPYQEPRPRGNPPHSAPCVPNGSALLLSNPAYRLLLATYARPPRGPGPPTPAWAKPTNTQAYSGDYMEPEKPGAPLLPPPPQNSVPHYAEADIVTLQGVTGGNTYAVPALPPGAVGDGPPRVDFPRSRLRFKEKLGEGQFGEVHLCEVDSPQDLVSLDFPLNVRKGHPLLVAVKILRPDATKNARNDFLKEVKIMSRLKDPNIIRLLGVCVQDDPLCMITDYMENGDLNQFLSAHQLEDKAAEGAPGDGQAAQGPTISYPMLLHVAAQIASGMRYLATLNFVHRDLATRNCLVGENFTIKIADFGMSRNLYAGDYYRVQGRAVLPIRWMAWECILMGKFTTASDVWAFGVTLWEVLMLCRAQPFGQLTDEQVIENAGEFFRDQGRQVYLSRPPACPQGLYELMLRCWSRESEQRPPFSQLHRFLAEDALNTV

Structure (SMILES)	IC50 [1] [nM]	Ki [2] [nM]	Ki [3] [nM]
CC(F)(F)c1cncc(NC(=O)c2csc3c2CCN(C(=O)c2cnc4ccccn24)C3)c1 [Example 115, N-(5-(1,1-difluoroethyl)pyridin-3-yl)-6-(imidazo[1,2-a]pyridine-3-carbonyl)-4,5,6,7-tetrahydrothieno[2,3-c]pyridine-3-carboxamide]	50 to 80	< 25	< 25
O=C(Nc1cncc(C(F)(F)F)c1)c1csc2c1CCN(C(=O)c1cnc3n1CCCN3)C2 [Example 120, 6-(5,6,7,8-tetrahydroimidazo[1,2-a]pyrimidine-3-carbonyl)-N-(5-(trifluoromethyl)pyridin-3-yl)-4,5,6,7-tetrahydrothieno[2,3-c]pyridine-3-carboxamide]	50 to 80	< 25	< 25
COc1ncc(NC(=O)c2csc3c2CCN(C(=O)c2cnn4ccncc24)C3)cc1C(F)(F)F [Example 121, N-(6-methoxy-5-(trifluoromethyl)pyridin-3-yl)-6-(pyrazolo[1,5-a]pyrazine-3-carbonyl)-4,5,6,7-tetrahydrothieno[2,3-c]pyridine-3-carboxamide]	50 to 80	< 25	< 25
CC(F)(F)c1cncc(NC(=O)c2csc3c2CCN(C(=O)c2cnn4ccncc24)C3)c1 [Example 122, N-(5-(1,1-difluoroethyl)pyridin-3-yl)-6-(pyrazolo[1,5-a]pyrazine-3-carbonyl)-4,5,6,7-tetrahydrothieno[2,3-c]pyridine-3-carboxamide]	50 to 80	< 25	< 25
CC(C)(C)c1cncc(NC(=O)c2csc3c2CCN(C(=O)c2cnn4ccncc24)C3)c1 [Example 123, N-(5-(tert-butyl)pyridin-3-yl)-6-(pyrazolo[1,5-a]pyrazine-3-carbonyl)-4,5,6,7-tetrahydrothieno[2,3-c]pyridine-3-carboxamide]	50 to 80	< 25	< 25
O=C(Nc1cncc(OC(F)F)c1)c1csc2c1CCN(C(=O)c1cnn3ccncc13)C2 [Example 125, N-(5-(difluoromethoxy)pyridin-3-yl)-6-(pyrazolo[1,5-a]pyrazine-3-carbonyl)-4,5,6,7-tetrahydrothieno[2,3-c]pyridine-3-carboxamide]	25 to 50	< 25	< 25
CC(C)(c1cc(NC(=O)c2csc3c2CCN(C(=O)c2cnn4ccncc24)C3)no1)C(F)(F)F [Example 126, 6-(pyrazolo[1,5-a]pyrazine-3-carbonyl)-N-(5-(1,1,1-trifluoro-2-methylpropan-2-yl)isoxazol-3-yl)-4,5,6,7-tetrahydrothieno[2,3-c]pyridine-3-carboxamide]	25 to 50	< 25	< 25
O=C(Nc1cncc(C(F)(F)F)c1)c1csc2c1CCN(C(=O)c1cnc3cnccn13)C2 [Example 127, 6-(imidazo[1,2-a]pyrazine-3-carbonyl)-N-(5-(trifluoromethyl)pyridin-3-yl)-4,5,6,7-tetrahydrothieno[2,3-c]pyridine-3-carboxamide]	25 to 50	< 25	< 25
CN(C)Cc1cc(NC(=O)c2csc3c2CCN(C(=O)c2cnc4ccccn24)C3)cc(C(F)(F)F)n1 [Example 129, N-(2-((dimethylamino)methyl)-6-(trifluoromethyl)pyridin-4-yl)-6-(imidazo[1,2-a]pyridine-3-carbonyl)-4,5,6,7-tetrahydrothieno[2,3-c]pyridine-3-carboxamide]	25 to 50	< 25	25 to 50
CN(C)[C@@H]1CCN(C(=O)c2cc(NC(=O)c3csc4c3CCN(C(=O)c3cnc5ccccn35)C4)cc(C(F)(F)F)c2)C1 [Example 130, (R)-N-(3-(3-(dimethylamino)pyrrolidine-1-carbonyl)-5-(trifluoromethyl)phenyl)-6-(imidazo[1,2-a]pyridine-3-carbonyl)-4,5,6,7-tetrahydrothieno[2,3-c]pyridine-3-carboxamide]	50 to 80	< 25	< 25
N#Cc1cc(NC(=O)c2csc3c2CCN(C(=O)c2cnc4ccccn24)C3)cc(C(F)(F)F)c1 [Example 131, N-(3-cyano-5-(trifluoromethyl)phenyl)-6-(imidazo[1,2-a]pyridine-3-carbonyl)-4,5,6,7-tetrahydrothieno[2,3-c]pyridine-3-carboxamide]	25 to 50	< 25	< 25
CN(C)Cc1ccc2ncc(C(=O)N3CCc4c(C(=O)Nc5cccc(C(F)(F)F)c5)csc4C3)n2c1 [Example 135, 6-(6-((dimethylamino)methyl)imidazo[1,2-a]pyridine-3-carbonyl)-N-(3-(trifluoromethyl)phenyl)-4,5,6,7-tetrahydrothieno[2,3-c]pyridine-3-carboxamide]	25 to 50	< 25	25 to 50

Results, then the compound that gave them:

IC50 [1] [nM]	Ki [2] [nM]	Ki [3] [nM]	Structure (SMILES)
25 to 50	< 25	< 25	Cn1nc(NC(=O)c2csc3c2CCN(C(=O)c2cnn4ccncc24)C3)cc1C(C)(C)C [Example 116, N-(5-(tert-butyl)-1-methyl-1H-pyrazol-3-yl)-6-(pyrazolo[1,5-a]pyrazine-3-carbonyl)-4,5,6,7-tetrahydrothieno[2,3-c]pyridine-3-carboxamide]
< 25	< 25	< 25	CC(C)(C)c1cncc(NC(=O)c2csc3c2CCN(C(=O)c2cnc4ccccn24)C3)c1 [Example 117, N-(5-(tert-butyl)pyridin-3-yl)-6-(imidazo[1,2-a]pyridine-3-carbonyl)-4,5,6,7-tetrahydrothieno[2,3-c]pyridine-3-carboxamide]
25 to 50	< 25	< 25	O=C(Nc1cncc(OC(F)F)c1)c1csc2c1CCN(C(=O)c1cnc3ccccn13)C2 [Example 118, N-(5-(difluoromethoxy)pyridin-3-yl)-6-(imidazo[1,2-a]pyridine-3-carbonyl)-4,5,6,7-tetrahydrothieno[2,3-c]pyridine-3-carboxamide]
25 to 50	< 25	< 25	CCC(C)(C)c1cc(NC(=O)c2csc3c2CCN(C(=O)c2cnc4ccccn24)C3)on1 [Example 119, 6-(imidazo[1,2-a]pyridine-3-carbonyl)-N-(3-(tert-pentyl)isoxazol-5-yl)-4,5,6,7-tetrahydrothieno[2,3-c]pyridine-3-carboxamide]
< 25	< 25	< 25	O=C(Nc1cncc(C(F)(F)F)c1)c1csc2c1CCN(C(=O)c1cnn3ccccc13)C2 [Example 124, 6-(pyrazolo[1,5-a]pyridine-3-carbonyl)-N-(5-(trifluoromethyl)pyridin-3-yl)-4,5,6,7-tetrahydrothieno[2,3-c]pyridine-3-carboxamide]
< 25	< 25	< 25	O=C(Nc1cncc(OC(F)(F)F)c1)c1csc2c1CCN(C(=O)c1cnn3ccncc13)C2 [Example 128, 6-(pyrazolo[1,5-a]pyrazine-3-carbonyl)-N-(5-(trifluoromethoxy)pyridin-3-yl)-4,5,6,7-tetrahydrothieno[2,3-c]pyridine-3-carboxamide]
< 25	< 25	< 25	O=C(Nc1ccc(CO)c(C(F)(F)F)c1)c1csc2c1CCN(C(=O)c1cnc3ccccn13)C2 [Example 132, N-(4-(hydroxymethyl)-3-(trifluoromethyl)phenyl)-6-(imidazo[1,2-a]pyridine-3-carbonyl)-4,5,6,7-tetrahydrothieno[2,3-c]pyridine-3-carboxamide]
< 25	< 25	< 25	O=C(Nc1cccc(C(F)(F)F)c1)c1csc2c1CCN(C(=O)c1cnc3ccc(OCCO)cn13)C2 [Example 137, 6-(6-(2-hydroxyethoxy)imidazo[1,2-a]pyridine-3-carbonyl)-N-(3-(trifluoromethyl)phenyl)-4,5,6,7-tetrahydrothieno[2,3-c]pyridine-3-carboxamide]
